The values below are quoted from earlier work in patent US20250339472A1 (priority 2024, published 2025).

Where two headings read alike, the source gives them in different places.

For series [1] the following is noted: dog, in vivo.
For the next series, the target named is acetylcholinesterase (Homo sapiens, UniProt P22303).
Sequence of acetylcholinesterase (P22303 32-614, species assumed): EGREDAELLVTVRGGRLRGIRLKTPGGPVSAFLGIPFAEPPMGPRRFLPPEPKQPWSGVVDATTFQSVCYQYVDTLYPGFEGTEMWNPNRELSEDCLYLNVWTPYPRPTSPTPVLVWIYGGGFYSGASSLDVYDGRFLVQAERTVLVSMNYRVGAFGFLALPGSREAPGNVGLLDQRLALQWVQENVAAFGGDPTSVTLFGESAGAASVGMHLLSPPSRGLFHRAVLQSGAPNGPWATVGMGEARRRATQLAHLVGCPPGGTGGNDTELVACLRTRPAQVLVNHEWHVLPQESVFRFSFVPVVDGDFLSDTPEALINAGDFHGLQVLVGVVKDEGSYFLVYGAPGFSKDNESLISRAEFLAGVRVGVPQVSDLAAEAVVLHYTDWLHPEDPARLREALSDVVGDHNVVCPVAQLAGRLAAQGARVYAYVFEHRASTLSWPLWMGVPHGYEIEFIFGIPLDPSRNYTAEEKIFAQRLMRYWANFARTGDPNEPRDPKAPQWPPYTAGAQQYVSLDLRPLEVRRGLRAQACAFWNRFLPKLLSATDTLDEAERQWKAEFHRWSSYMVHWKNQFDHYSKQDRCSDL

For the compound `CC1=C(/C=C/C(C)=C/C=C/C(C)=C/C=C/C=C(C)/C=C/C=C(C)/C=C/C2=C(C)C(=O)[C@@H](O)CC2(C)C)C(C)(C)C[C@H](O)C1=O` [Astaxanthin—AstaReal®, Astaxanthin], the efficacy levels in series [1] is given as 0.3 mg/kg/day. For the compound `COc1cc(/C=C/C(=O)CC(=O)/C=C/c2ccc(O)c(OC)c2)ccc1O` [Curcumin], the “inhibition of acetylcholinesterase activity” value at acetylcholinesterase was “inhibits”. In the case of Hyaluronic Acid, the Safety levels is, setting by setting: (more than 26 kg body weight) 54 mg of HA per day; (up to 26 kg body weight) 27 mg of HA per day.
